Measured values: ChEMBL document CHEMBL5465560, “Selectivity Literature for EUbOPEN Chemogenomic Library” (2024)
Each block holds one compound with its values, some of them ahead of it.

Legend:
[1] = biological target: BMP-2-inducible protein kinase (Homo sapiens) (UniProt Q9NSY1); experiment: Selectivity interaction (Kinase panel (DSF assay)) EUB0001489b BMP2K
[2] = biological target: RAF proto-oncogene serine/threonine-protein kinase (Homo sapiens) (UniProt P04049); experiment: Selectivity interaction (Ambit KINOMEscan and KiNATiv profiling in Jurkat cells) EUB0000090b RAF1; format: cell-based; details: at 1 µM
[3] = biological target: Calcium/calmodulin-dependent protein kinase type II subunit beta (Homo sapiens) (UniProt Q13554); experiment: Selectivity interaction (KinomeScan (DiscoverX)) EUB0000655a CAMK2B; details: at 10 µM
[4] = biological target: Serine/threonine-protein kinase 10 (Homo sapiens) (UniProt O94804); experiment: Selectivity interaction (KinomeScan (DiscoverX)) EUB0001079a STK10; details: at 1 µM
Sequence of Serine/threonine-protein kinase 10 (Homo sapiens) (O94804 whole entry, looked up): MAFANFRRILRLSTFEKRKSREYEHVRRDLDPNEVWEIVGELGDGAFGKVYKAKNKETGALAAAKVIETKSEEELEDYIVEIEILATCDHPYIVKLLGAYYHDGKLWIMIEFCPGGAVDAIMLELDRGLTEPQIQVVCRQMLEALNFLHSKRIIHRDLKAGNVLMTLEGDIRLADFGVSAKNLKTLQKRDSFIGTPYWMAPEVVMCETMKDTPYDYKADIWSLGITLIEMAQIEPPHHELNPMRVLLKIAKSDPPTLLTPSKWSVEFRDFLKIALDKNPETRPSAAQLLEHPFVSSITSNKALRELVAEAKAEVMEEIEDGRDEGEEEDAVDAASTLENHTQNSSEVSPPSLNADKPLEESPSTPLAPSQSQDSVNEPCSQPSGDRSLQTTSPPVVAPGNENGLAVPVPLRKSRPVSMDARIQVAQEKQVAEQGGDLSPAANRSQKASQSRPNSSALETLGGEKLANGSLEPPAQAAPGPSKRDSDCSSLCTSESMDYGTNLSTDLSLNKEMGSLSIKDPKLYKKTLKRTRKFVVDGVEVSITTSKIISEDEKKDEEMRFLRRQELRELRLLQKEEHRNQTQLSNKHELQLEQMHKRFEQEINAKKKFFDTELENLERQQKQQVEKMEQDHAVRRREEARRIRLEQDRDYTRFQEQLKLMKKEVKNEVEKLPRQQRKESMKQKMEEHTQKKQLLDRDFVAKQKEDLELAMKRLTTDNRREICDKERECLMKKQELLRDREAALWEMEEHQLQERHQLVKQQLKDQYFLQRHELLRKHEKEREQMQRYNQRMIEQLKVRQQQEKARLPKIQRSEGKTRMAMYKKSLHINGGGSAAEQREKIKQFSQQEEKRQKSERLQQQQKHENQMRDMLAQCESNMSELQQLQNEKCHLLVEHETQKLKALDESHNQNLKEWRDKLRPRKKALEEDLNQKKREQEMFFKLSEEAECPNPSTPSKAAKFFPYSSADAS

[5] = biological target: Serine/threonine-protein kinase MRCK alpha (Homo sapiens) (UniProt Q5VT25); experiment: Selectivity interaction (KinomeScan (DiscoverX)) EUB0000607a CDC42BPA; details: at 10 µM
[6] = biological target: Serine/threonine-protein kinase PLK1 (Homo sapiens, UniProt P53350); experiment: Selectivity interaction (KinomeScan (DiscoverX)) EUB0000045b PLK1
Sequence of Serine/threonine-protein kinase PLK1 (P53350 whole entry): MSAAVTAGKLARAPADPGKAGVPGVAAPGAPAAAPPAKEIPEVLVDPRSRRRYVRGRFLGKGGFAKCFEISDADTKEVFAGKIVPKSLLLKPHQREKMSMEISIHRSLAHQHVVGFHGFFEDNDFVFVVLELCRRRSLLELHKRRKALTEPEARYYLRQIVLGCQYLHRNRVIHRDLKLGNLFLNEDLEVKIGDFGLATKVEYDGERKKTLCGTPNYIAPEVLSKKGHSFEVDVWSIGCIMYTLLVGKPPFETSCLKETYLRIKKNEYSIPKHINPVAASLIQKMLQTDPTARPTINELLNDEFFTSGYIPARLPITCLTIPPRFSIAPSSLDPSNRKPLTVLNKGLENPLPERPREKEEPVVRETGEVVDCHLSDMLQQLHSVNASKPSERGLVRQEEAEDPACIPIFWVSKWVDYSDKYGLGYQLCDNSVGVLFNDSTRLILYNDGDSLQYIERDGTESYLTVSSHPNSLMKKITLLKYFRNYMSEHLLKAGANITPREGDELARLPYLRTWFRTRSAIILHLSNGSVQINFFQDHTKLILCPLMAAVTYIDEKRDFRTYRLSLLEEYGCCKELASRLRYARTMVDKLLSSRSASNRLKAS

[7] = biological target: T1, Cyclin-dependent kinase 11A (Homo sapiens) (UniProt Q9UQ88); experiment: Selectivity interaction (KinomeScan (DiscoverX)) EUB0000595a CDK11A; details: at 10 µM
T1 sequence (whole entry): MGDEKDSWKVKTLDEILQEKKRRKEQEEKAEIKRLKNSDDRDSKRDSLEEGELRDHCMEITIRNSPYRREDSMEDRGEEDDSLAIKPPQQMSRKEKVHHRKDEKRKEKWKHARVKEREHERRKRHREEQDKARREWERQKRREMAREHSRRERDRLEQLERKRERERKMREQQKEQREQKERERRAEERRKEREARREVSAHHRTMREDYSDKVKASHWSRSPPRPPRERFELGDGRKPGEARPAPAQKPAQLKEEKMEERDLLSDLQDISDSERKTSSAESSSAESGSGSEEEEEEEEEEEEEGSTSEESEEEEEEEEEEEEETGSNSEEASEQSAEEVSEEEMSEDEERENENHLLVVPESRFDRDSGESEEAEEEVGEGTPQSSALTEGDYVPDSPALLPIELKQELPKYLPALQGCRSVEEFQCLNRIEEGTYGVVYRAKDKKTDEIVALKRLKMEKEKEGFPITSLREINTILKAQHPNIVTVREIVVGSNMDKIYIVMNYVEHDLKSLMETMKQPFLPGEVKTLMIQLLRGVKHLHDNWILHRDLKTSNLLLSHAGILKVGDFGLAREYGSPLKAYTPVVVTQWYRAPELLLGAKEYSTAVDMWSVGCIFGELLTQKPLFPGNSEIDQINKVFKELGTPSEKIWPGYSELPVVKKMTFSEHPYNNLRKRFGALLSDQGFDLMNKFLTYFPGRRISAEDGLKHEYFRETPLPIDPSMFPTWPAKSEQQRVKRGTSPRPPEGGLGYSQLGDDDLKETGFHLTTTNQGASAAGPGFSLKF

[8] = biological target: T2, cGMP-dependent protein kinase 2 (Homo sapiens) (UniProt Q13237); experiment: Selectivity interaction (KinomeScan (DiscoverX)) EUB0000595a PRKG2; details: at 10 µM
T2 sequence (whole entry): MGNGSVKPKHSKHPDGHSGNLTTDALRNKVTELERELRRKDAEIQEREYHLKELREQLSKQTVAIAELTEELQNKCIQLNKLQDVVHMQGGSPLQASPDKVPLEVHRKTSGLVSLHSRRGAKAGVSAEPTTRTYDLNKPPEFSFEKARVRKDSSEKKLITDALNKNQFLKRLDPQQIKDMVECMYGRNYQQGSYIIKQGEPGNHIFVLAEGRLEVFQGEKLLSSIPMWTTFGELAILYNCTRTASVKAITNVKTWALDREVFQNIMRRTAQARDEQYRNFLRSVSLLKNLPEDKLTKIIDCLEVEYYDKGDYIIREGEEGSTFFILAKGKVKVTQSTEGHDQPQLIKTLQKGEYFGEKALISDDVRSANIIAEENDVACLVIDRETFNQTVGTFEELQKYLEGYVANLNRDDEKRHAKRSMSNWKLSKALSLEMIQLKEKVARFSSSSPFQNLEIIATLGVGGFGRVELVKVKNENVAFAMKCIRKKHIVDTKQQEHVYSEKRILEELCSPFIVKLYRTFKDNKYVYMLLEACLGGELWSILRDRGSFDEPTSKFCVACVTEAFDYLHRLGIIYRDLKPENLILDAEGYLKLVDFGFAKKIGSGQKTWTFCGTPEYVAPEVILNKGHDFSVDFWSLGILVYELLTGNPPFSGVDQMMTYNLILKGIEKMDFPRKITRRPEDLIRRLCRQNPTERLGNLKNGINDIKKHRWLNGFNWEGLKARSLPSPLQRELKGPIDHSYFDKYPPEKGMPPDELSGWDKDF

[9] = biological target: Epidermal growth factor receptor (Homo sapiens, UniProt P00533); experiment: Selectivity interaction (Enzyme panel (AstraZeneca, AlphaScreen, functional assay)) EUB0000621a EGFR
[10] = biological target: Mast/stem cell growth factor receptor Kit (Homo sapiens, UniProt P10721); details: at 10 µM
Sequence of Mast/stem cell growth factor receptor Kit (P10721 whole entry): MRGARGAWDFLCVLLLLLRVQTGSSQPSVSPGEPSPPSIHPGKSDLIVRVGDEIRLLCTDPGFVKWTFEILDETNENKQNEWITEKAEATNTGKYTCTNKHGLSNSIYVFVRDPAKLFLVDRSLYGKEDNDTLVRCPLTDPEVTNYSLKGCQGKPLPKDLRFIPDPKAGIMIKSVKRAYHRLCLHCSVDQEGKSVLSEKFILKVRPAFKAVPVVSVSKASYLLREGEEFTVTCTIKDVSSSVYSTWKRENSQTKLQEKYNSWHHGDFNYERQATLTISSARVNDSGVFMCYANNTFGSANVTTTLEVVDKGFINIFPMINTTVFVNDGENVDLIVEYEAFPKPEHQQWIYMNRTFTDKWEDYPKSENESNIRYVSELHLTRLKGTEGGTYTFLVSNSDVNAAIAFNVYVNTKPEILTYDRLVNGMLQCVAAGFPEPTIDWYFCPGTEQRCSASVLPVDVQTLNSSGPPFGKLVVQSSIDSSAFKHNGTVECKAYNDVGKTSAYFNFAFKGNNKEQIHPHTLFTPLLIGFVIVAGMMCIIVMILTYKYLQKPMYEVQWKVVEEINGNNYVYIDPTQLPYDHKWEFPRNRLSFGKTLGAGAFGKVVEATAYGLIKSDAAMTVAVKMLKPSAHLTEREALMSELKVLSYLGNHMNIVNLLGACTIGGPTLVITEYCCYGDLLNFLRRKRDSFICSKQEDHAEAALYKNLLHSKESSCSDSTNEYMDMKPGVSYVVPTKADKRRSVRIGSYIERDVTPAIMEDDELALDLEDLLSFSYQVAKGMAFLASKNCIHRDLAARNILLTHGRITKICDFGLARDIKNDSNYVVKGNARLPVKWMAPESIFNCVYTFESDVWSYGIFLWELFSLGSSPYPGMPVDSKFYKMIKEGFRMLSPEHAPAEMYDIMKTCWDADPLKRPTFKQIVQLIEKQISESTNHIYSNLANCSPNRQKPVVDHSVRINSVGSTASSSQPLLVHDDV

[11] = biological target: T3, Tyrosine-protein kinase BTK (Homo sapiens, UniProt Q06187); experiment: (§1) Selectivity interaction (ActivX KiNativ screen (kinase selectivity in THP-1 cell lysates)) EUB0000639a BTK; format: subcellular; details: lysate, at 1 µM
T3 sequence (Q06187 whole entry): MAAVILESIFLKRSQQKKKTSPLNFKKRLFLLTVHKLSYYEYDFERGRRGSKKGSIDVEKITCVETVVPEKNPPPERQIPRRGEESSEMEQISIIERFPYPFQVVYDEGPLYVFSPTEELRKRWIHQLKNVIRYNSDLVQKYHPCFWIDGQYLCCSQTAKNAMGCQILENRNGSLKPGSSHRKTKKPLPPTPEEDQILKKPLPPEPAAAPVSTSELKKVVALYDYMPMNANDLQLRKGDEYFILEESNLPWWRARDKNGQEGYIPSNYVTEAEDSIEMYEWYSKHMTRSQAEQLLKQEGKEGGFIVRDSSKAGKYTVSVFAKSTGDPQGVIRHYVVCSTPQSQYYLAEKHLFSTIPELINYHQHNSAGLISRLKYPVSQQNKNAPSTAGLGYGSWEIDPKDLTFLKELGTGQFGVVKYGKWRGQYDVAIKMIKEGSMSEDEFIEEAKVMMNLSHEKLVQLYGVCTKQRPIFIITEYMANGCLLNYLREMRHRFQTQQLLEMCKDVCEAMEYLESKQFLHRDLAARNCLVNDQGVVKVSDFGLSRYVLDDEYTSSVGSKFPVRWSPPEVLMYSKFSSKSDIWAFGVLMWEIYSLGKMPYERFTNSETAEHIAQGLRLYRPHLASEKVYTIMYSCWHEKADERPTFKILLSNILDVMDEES

[12] = biological target: Cyclin-dependent kinase 7 (Homo sapiens, UniProt P50613); experiment: Selectivity interaction (ActivX KiNativ screen (kinase selectivity in THP-1 cell lysates)) EUB0000639a CDK7; format: subcellular; details: lysate, at 0.01 µM
[13] = biological target: T3, Tyrosine-protein kinase BTK; experiment: as §1; format: subcellular; details: lysate, at 0.04 µM
[14] = biological target: Histone-lysine N-methyltransferase EZH2 (Homo sapiens) (UniProt Q15910); experiment: Selectivity interaction (Transferase panel (protein, RNA, and DNA methyltransferases. and EP300 (acetyltransferase))) EUB0000270b EZH2
Sequence of Histone-lysine N-methyltransferase EZH2 (Homo sapiens) (Q15910 whole entry, looked up): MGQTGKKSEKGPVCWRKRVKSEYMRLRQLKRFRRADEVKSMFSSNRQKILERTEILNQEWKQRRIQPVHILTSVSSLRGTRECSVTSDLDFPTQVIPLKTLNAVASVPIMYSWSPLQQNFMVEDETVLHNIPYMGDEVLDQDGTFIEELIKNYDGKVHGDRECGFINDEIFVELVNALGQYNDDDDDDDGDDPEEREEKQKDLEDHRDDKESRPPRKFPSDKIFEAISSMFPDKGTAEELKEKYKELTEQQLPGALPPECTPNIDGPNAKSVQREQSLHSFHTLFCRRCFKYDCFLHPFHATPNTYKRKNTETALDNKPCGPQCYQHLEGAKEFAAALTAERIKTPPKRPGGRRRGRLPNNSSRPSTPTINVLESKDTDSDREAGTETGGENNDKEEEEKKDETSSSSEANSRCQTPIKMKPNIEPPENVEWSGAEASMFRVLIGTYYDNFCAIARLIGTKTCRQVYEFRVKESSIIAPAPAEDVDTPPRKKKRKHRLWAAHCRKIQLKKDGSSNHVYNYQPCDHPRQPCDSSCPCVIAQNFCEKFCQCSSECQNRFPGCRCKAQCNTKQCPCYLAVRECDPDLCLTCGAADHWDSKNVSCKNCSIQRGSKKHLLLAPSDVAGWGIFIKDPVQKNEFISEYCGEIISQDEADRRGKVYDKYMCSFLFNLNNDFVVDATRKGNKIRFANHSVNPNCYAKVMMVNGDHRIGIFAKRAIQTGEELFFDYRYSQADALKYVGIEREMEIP

[15] = tested on: Serine/threonine-protein kinase B-raf (Homo sapiens), P15056 [V600E]; experiment: (§2) Selectivity interaction (ProQinase) EUB0000171b BRAF
Sequence of Serine/threonine-protein kinase B-raf (Homo sapiens), P15056 [V600E] (P15056 whole entry V600E): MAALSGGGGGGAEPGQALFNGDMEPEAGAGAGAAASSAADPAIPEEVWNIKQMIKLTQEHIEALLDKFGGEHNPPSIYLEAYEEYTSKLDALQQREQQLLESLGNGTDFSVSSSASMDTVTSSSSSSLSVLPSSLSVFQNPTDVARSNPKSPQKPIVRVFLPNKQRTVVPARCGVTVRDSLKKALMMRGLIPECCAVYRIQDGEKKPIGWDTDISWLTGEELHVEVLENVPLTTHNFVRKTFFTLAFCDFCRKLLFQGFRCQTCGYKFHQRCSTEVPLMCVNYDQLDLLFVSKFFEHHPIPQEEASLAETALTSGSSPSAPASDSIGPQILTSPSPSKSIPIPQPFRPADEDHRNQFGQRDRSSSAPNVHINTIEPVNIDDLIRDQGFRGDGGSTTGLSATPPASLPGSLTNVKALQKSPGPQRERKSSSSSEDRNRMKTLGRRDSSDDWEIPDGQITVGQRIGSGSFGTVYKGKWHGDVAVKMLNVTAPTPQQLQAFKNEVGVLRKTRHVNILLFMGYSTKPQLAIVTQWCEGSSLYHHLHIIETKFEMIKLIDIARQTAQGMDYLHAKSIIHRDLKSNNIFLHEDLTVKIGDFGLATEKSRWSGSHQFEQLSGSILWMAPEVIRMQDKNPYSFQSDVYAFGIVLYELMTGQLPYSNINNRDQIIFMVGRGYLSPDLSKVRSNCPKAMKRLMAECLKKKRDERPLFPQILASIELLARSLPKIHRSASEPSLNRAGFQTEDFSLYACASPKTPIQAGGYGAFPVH

[16] = biological target: Serine/threonine-protein kinase B-raf (Homo sapiens) (UniProt P15056); experiment: as §2
Sequence of Serine/threonine-protein kinase B-raf (Homo sapiens) (P15056 whole entry): as the sequence (P15056 whole entry V600E) above, with E600V counted along it

[17] = biological target: Nuclear receptor subfamily 1 group I member 2 (Homo sapiens, UniProt O75469); experiment: Selectivity interaction (PXR Receptor agonist/antagonist assay: TR-FRET human recombinant ) EUB0000877a NR1I2
[18] = biological target: Activin receptor type-2A (Homo sapiens) (UniProt P27037); experiment: Selectivity interaction (KinomeScan (DiscoverX)) EUB0000092b ACVR2A; details: at 10 µM
Activated CDC42 kinase 1 = Activated CDC42 kinase 1 (Homo sapiens, UniProt Q07912); experiment: Selectivity interaction (KinomeScan (DiscoverX)) EUB0000695a TNK2; details: at 100 nM

dTM [1]: 6.8 K
SMILES: CN1CCN(C(=O)c2ccc3cc2OCCOCCNc2ccn4ncc-3c4n2)CC1

SMILES: CN(C)C/C=C/C(=O)Nc1ccc(C(=O)N2CCCC(Nc3ncc(Cl)c(-c4c[nH]c5ccccc45)n3)C2)cc1 (stereo not drawn)
% of control [2]: 91%

SMILES: CN(C)CCOc1ccc(-c2nc(-c3ccncc3)c(-c3ccc4c(c3)CC/C4=N\O)[nH]2)cc1
% of control [3]: 98%

SMILES: Nc1cnc(N2CCc3cc(S(=O)(=O)Nc4c(F)cc(Cl)cc4F)cc(N4CCCC4=O)c32)nc1 [TP-020n]
% of control [4]: 100%

SMILES: CNC(=O)Nc1ccc(-c2nc(N3CC4CCC(C3)O4)c3cnn(C4CCC5(CC4)OCCO5)c3n2)cc1
% of control [5]: 100%

SMILES: C=CC(=O)Nc1cc(-n2c(=O)ccc3cnc4ccc(-c5ccc(NS(C)(=O)=O)cc5)cc4c32)ccc1C
% of control ([6]; at 1 µM): 100%
% of control ([6]; at 10 µM): 100%

SMILES: COCC(=O)NC/C=C/c1ccc2ncnc(Nc3ccc(Oc4ccc(C)nc4)c(C)c3)c2c1 [CP-724714]
% of control [7]: 100%
% of control [8]: 100%

SMILES: Cc1cc([C@@H](C)Nc2ccccc2C(=O)O)c2nc(N3CCOCC3)cc(=O)n2c1 [AZD-6482]
IC50 [9]: > 298 µM
% of control [10]: 91%

% of inhibition [11]: -7.2%
% of inhibition [12]: -3%
% of inhibition [13]: -17.7%
SMILES: CC[C@@H]1[C@H](F)C(=O)N[C@@H]1COc1nccc2cc(C(N)=O)c(OC)cc12 [ZIMLOVISERTIB]

% activity ([14]; at 1 µM): > 90%
% activity ([14]; at 10 µM): > 80%
SMILES: Cc1cc(CN)cc(C)c1-c1ncn(C)c1-c1cncn1C

% of control ([15]; at 1 µM): 110%
% of control ([15]; at 5 µM): 113%
% of control ([16]; at 1 µM): 96%
% of control ([16]; at 5 µM): 82%
SMILES: C=CC(=O)Nc1cccc(C(=O)Nc2ccc(Nc3cc(-c4[nH]c(SC)nc4C)ccn3)cc2)c1

IC50 [17]: > 30 µM
SMILES: CCC(=O)N1CC[C@H](Nc2ncnc3c2CN(c2cnc(OC)c(C(F)(F)F)c2)CC3)C1 [LENIOLISIB]

SMILES: CCC(=O)N1CCN(c2ccc(-n3c(=O)ccc4cnc5ccc(-c6cnc7ccccc7c6)cc5c43)cc2C(F)(F)F)CC1
% of control [18]: 47%

SMILES: Cc1cc(F)c(C(=O)Nc2cccc(-c3nncn3C(C)C)n2)cc1-n1cnc(C2CC2)c1
% of control (Activated CDC42 kinase 1): 98%
